In US6552073B1, “Compounds and methods of treating cell proliferative diseases” (Exonhit Therapeutics SA, priority 2002, dated 2003):
Entries after “also recorded” stand apart in the source; their conditions may differ.

What was measured:
[1] = tested on: NIH3T3; assay: Cytoskeleton analysis, actin staining; type: cell-based, mouse; design: key to Cell architecture modification, actin staining NIH3T3, ruffles (R) / Cell architecture modification, actin staining NIH3T3, focal complexes (FC): a decrease in cellular ruffles density was noted R−; an increase in focal complexes density was noted FC+
Protocol: (§1) Since major rearrangements of cytoskeleton are observed in tumor cells and since the small GTPases are known to regulate these events, analysis of actin cytoskeleton was performed. Subconfluent cells seeded onto coverslips were treated with different concentration of compound (1, 10, 17.5, 25 and 50 μM) or vehicle for 24 h, before being fixed in 4% formaldehyde for 15 min., permeabilized in 0.2% Triton X100 for 5 minutes and incubated in PowerBlock (Biogenex) for 10 min. Actin filaments were stained with 0.5 μg/ml fluorescein isothiocyanate (FITC)-labelled phalloidin for 1 hour. Analysis was performed using an inverted fluorescent microscope.

[2] = tested on: MMP-2; assay: Gelatin zymography; type: cell-based, human; settings: zymogram gel, MDA-MB-231 supernatant
Protocol: (§2) The activity of the metalloproteases MMP-2 and MMP-9 was assayed using gelatinolytic zymography according to Lambert (Surgery 1997). Briefly, MDA-MB-231 cells were incubated overnight in serum-free medium supplemented with ITS liquid supplement (Sigma) with different concentrations of compound (1, 10, 17.5, 25 and 50 μM). Supematant was collected and concentrated with Ultrafree 30 kDA (Millipore). Equal amount of proteins, as determined by Bradford measurement, were loaded onto a 10% w/v polyacrylamide gel containing 1% gelatin and 0.1% SDS (Novex). After electrophoresis, gels were washed in Novex Zymogram Renaturing buffer for 30 min at room temperature and incubated overnight at 37° C. in Novex Zymogram developing buffer. Gels were stained in Coomassie Brilliant Blue G-250, and the gelatinolytic activity was visualized as a clear band against the blue background of the stained gelatin.

[3] = tested on: MMP-9; assay: Gelatin zymography; type: cell-based, human; settings: zymogram gel, MDA-MB-231 supernatant
Protocol: as §2

[4] = tested on: MDA-MB-231 cells; assay: Matrigel invasion assay (Boyden chamber); type: cell-based, human; settings: MDA-MB-231 cells
Protocol: d) Migration and Matrigel Invasion Assay
Chemoinvasion assay was performed in Boyden chamber as described by Albini et al (Cancer Res, 1987) with some modifications. Polycarbonate membranes with 8μm pores were coated with matrigel (125 μg/cm^2) at room temperature for 48 h. Two hours before experiments, the matrix was […] with serum-free medium containing 0.1% BSA.
One day after seeding, 10^6 MDA-MB-231 cells were treated overnight with different concentrations of compounds (1, 10, 17.5, 25 and 50 μM). Cells were collected with Versene (Invitrogen), counted with trypan blue exclusion, rinsed twice in serum-free medium containing 0.1% BSA and resuspended in serum-free medium containing 0.1% BSA plus the appropriate concentration of compound. 10^5 treated cells were placed in the upper chamber. Medium containing 10% of FBS plus the appropriate concentration of compound was placed in the lower chamber as a chemoattractant. The Boyden chamber was incubated 6 hours at 37° C. before the cells were fixed and stained with Diff-Quick (Dade-Berhing). Cells on the upper part of the filters were removed using a cotton swab. Cells on the underside of the filters were visualised and counted under light microscope. The migration assay was performed the same way, using non-coated filters.

[5] = tested on: NIH3T3 cells transfected with RasV12; assay: Colony formation assay in the presence of constitutively activated Ras (RasV12); type: cell-based, mouse; design: key to Colony formation: −: no effect of the compound was observed; +: an effect of the compound was observed; settings: for Colony formation: NIH3T3, neoR colonies; for Ras-dependent neoR clones formation: NIH3T3, RasV12
Protocol: c) Ras/Rac-dependant Signaling Pathway Analysis
The impact of the compounds on Ras and Rac signaling pathways was analysed with two reporter systems described by Imler (Nature 1988) and Lin (Science, 1995) respectively on one hand, and by a colony formation assay in the presence of constitutively activated Ras (RasV12) and Rac (RacV12) on the other hand. For this latter experiment, fifty percent confluent NIH3T3 cells in a 10 cm diameter petri dish were transfected with 0.5 μg pSV2-RasV12 or 0.5 μg pEXV RacV12 plasmids plus 100 ng of pSV2-neomycin plasmid using Lipofectamine-Plus reagent (Invitrogen) according to the manufacturer's instructions. Forty-eight hours later, cells were trypsinised, splitted to 1/3, and incubated in the presence of complete medium supplemented with 400 μg/ml geneticin (Invitrogen) and different doses of compound (1, 10, 17.5, 25 and 50 μM) until emerging resistant clones appear (2-3 weeks). The medium was renewed every 3 days. Colonies with a minimum of 50 cells were counted after staining with Fuschin 2%.

[6] = tested on: MDA231; assay: Cytoskeleton analysis, actin staining; type: cell-based, human
Protocol: as §1

[7] = tested on: HCT116; assay: Cytoskeleton analysis, actin staining; type: cell-based, human
Protocol: as §1

[8] = tested on: H460; assay: Cytoskeleton analysis, actin staining; type: cell-based, human
Protocol: as §1

SMILES	Cell architecture modification, actin staining NIH3T3, focal complexes (FC) [1]	Cell architecture modification, actin staining NIH3T3, ruffles (R) [1]	melting point	concentration of dose-dependant inhibition of MMP-2 [2]	concentration of dose-dependant inhibition of MMP-9 [3]	concentration at which an increase in invasive properties was noted [4]	Colony formation [5]	Cell architecture modification, actin staining MDA231, general observation [6]	Ras-dependent neoR clones formation [5]	Cell architecture modification, actin staining HCT116, general observation [7]	Cell architecture modification, actin staining H460, general observation [8]
C/C=C/c1oc(CO)cc(=O)c1OCCCCCOc1ccc(Cl)c(Cl)c1CCC [EH31101, (E)-3-[5-(3,4-Dichloro-2-propylphenyoxy)pentyloxy]-6-(hydroxymethyl)-2-(propen-1-yl)-4H-pyran-4-one]	FC+	R−	75 to 76 °C	0.1 µM	0.1 µM	10 µM	−				
CCCc1c(OCCCCCOc2coc(CO)cc2=O)ccc(Cl)c1Cl [EH22900, 5-[5-(3,4-Dichloro-2-propylphenyloxy)pentyloxy]-2-(hydroxymethyl)-4H-pyran-4-one]	FC+	R−	85 to 86 °C	5 µM	5 µM		+	increased MDA-MB-231 spreading; also recorded: cell spreading	inhibited		
CCCc1ccccc1OCCCCCOc1coc(CO)cc1=O [EH18900, 5-[5-(2-Propylphenyloxy)pentyloxy]-2-(hydroxymethyl)-4H-pyran-4-one]	FC+	R−				50 µM	+		inhibited	cell spreading	cell spreading
